Series [1] addresses T1, WRN (Homo sapiens, UniProt Q14191).
T1 construct: A His-tagged construct of WRN (AA S2-S1235) was produced and used for the ATPase assay; His; made in house; host or cells: Sf9 insect cells (baculovirus)
The series is described as follows: WRN ATPase activity assay (ADP-Glo). It is filed as biochemical. As to conditions: IC50, 1-hr pre-incubation with enzyme; geometric means of at least 2 independent replicates. As to the method: Compounds of the Examples were tested for WRN ATPase activity. WRN ATPase activity catalyzes ATP hydrolysis to produce ADP and phosphate. DNA encoding the target protein, 6×HIS-TEV-WRN-517-945, was produced, cloned and transfected as detailed in Example D. The amount of ADP produced was measured using ADP-Glo™ Kinase Assay kit from Promega Corporation in a Greiner white regular volume 384 wells assay plate (Greiner #781075). Data was normalized to a standard curve generated using various ADP concentrations and the corresponding luminescent signal intensities at each concentration. The assay conditions were optimized for enzyme concentration (WRN), substrate concentrations (ATP & dsDNA), and the linearity of the ATPase reaction, in the following assay buffer: 50 mM Tris-HCl, pH-7.5, 2 mM MgCl2, 50 mM NaCl, 1 mM EGTA, 0.01% P-20, 0.05% BSA, and 2 mM DTT prepared with nuclease free water.
A serial dilution (1:3 scheme) of the compounds were prepared in neat DMSO, with 100 nL of the compounds dispensed in the 384 wells assay plate. An 1-hr pre-incubation of the compounds with enzyme was included. A His-tagged construct of WRN (AA S2-S1235) was produced and used for the ATPase assay. Maximum inhibition control wells were set up with the addition of only assay buffer, and no inhibition control wells were set up with neat DMSO without test compounds. The reaction was initiated by addition of 5 μL substrate mix (200 μM ultrapure ATP, and 50 nM dsDNA prepared in assay buffer) and incubated at 25° C. for 35 min. A forked dsDNA oligomer substrate was prepared by annealing equal amounts of oligo GPat-1 ([BHQ2][…]) and oligo GPat-2 ([…][TAM]) and was used as dsDNA substrate for WRN ATPase assay. A typical ATPase reaction consists of 25 nM forked dsDNA, 100 μM ATP, and 1 nM WRN prepared in assay buffer. The WRN ATPase reaction was stopped by the addition of 5 μL of ADP-Glo Reagent from ADP-Glo™ Kinase Assay kit and incubated for 40 min to deplete the unreacted ATP. Afterwards, 5 μL of Kinase Detection Reagent from the ADP-Glo™ Kinase Assay kit was added and incubated for 1 hr for the development of luminescence signal.
Luminesce signals were measured on BMG PHERAstar FSX using luminescence protocol. Data analysis was carried out using Genedata software following % of control normalization. Fitting parameters include dose response IC50, Hill slope (n), maximum inhibition (S∞), and minimum inhibition (S0). The reported IC50 values for compounds in this invention are the geometric means of at least 2 independent replicates.

A further series has as its target T2, WRN Cys727Ala (Homo sapiens, UniProt Q14191, C727A).
T2 construct: Point mutations were made in the His-tagged WRN construct used for biochemical characterization (aa S2-S1235); His; made in house
The series is described as follows: ATPase assay on WRN Cys727Ala mutant, without preincubation. Type of series: biochemical. The method, then: (§1) Point mutations were made in the His-tagged WRN construct used for biochemical characterization (aa S2-S1235). Cysteine 580 (Walker A motif), 727 (linker), 864 (Domain 2 Å) and 1041 (RQC domain) were each mutated to both Serine and Alanine using site directed mutagenesis, for a total of eight mutants. Purified proteins were assayed in both helicase and ATPase assays. Cys580 mutation to either Ser or Ala abolished all activity, consistent with Walker A motif cysteine function. Cys864 (D2) mutation to alanine and Cys1041 (RQC domain) had no significant impact on helicase or ATPase activity. Cys727 abolished helicase activity (Table 6), whether it was mutated to Ala or Ser. ATPase activity for Cys727 mutants was reduced but not abolished (Table 7). Table 6 is the panel of the nine variant WRN helicase proteins that were screen using a flourscence-based DNA unwinding assay with an increase in flourscence intensity indicating DNA unwinding. Table 7 is the panel of the nine variant WRN helicase proteins that were screened using ADP-Glo assay to measure DNA stimulated ATPase activity, with an increase in luminescence indicating ATP hydrolysis.
(§2) From FIG. 2, the top line represented WT. […] The mutant experiments were performed without preincubation.

Another series deals with T3, WRN Cys727Ser (Homo sapiens, UniProt Q14191, C727S).
T3 construct: Point mutations were made in the His-tagged WRN construct used for biochemical characterization (aa S2-S1235); His; made in house
The series is described as follows: ATPase assay on WRN Cys727Ser mutant, without preincubation. Type of series: biochemical. The method, then:
as §1, §2

For series [2], the target named is T1, WRN. The series can be described thus: WRN Helicase activity assay (fluorescence DNA unwinding). As to conditions: IC50, 1-hr pre-incubation with enzyme; geometric means of at least 2 independent replicates. Type of series: biochemical. The method, then: Compounds of the examples were tested for WRN helicase activity. DNA encoding the target protein, 6×HIS-TEV-WRN-517-945, was produced, cloned and transfected as detailed in Example D. To determine the inhibitory properties of the compounds, a 384 wells plate-based Helicase assay was set up to measure the extent of DNA unwinding (Helicase) activity of WRN. The WRN Helicase assay was designed to measure increase in fluorescence signal using a fluorescence based, donor-quencher paired forked dsDNA oligomer substrate (custom synthesis from Sigma-Aldrich) prepared by annealing equal amounts of oligo GPat-1 ([BHQ2][…]) and oligo GPat-2 ([…][TAM]). Continuous measurement of fluorescent signal was used to optimize the buffer conditions, concentration of enzyme (WRN), concentration of substrates (ATP & dsDNA), and the linearity of the Helicase reaction. All solutions were prepared in the following assay buffer: 50 mM Tris-HCl, pH-7.5, 2 mM MgCl2, 50 mM NaCl, 1 mM EGTA, 0.01% P-20, 0.05% BSA, and 2 mM DTT prepared with nuclease free water.
A serial dilution (1:3 scheme) of the compounds was prepared in neat DMSO and 100 nL of the compounds was dispensed in the Greiner black low volume (Greiner #784076) 384 wells assay plate. An 1-hr pre-incubation of the compounds with enzyme was included. A His-tagged construct of WRN (AA S2-S1235) was produced and used for the ATPase assay. Maximum inhibition control wells were set up with the addition of only assay buffer, and no inhibition control wells were set up with neat DMSO without test compounds. The reaction was initiated by addition of 5 μL substrate mix (200 μM ultrapure ATP, and 50 nM dsDNA prepared in assay buffer) and incubated at 25° C. for 35 min. A typical Helicase reaction consists of 25 nM forked dsDNA, 100 μM ATP, and 1 nM WRN prepared in assay buffer. The WRN Helicase reaction was quenched by the addition of 5 μL ‘STOP’ solution containing 100 mM EDTA (final EDTA concentration 33.33 mM) prepared in assay buffer. The plates were read on BMG PHERAstar FSX using 540/590 module to measure an increase of fluorescence. Data analysis was carried out using the Genedata software following % of control normalization. Fitting parameters include dose response IC50, Hill slope (n), maximum inhibition (S∞), and minimum inhibition (S0). The reported IC50 values for compounds in this invention are the geometric means of at least 2 independent replicates.

Series [3] addresses T4, WRN helicase (Homo sapiens, UniProt Q14191).
T4 construct: His-tagged WRN construct used for biochemical characterization (aa S2-S1235); His; made in house; host or cells: Sf9 insect cells (baculovirus)
The series can be described thus: ATPase assay on WRN helicase (ADP-Glo) with varied preincubation times. It is filed as biochemical. As to the method: An ATPase assay on WRN helicase was performed using ADP-Glo and IC50 values were determined by varying the compound of Example 1 preincubation times (FIG. 1). […] In FIG. 1, 0 hrs is represented by bottom dotted line; 1 hour is represented by the broken line with two bullets; 2 hrs is represented by solid line; and 4 hrs is represented by top dashed line.

Series [4] deals with WRN helicase. The series can be described thus: Intact mass spectrometry and peptide mapping of covalent modification. It is filed as binding. The method, then:
The intact WRN helicase has an observed mass of 67,573.1 Da (theoretical mass of 67,409.4 Da). The WRN helicase incubated with the compound of Example 1 has an observed mass of 68,164.5 (theoretical mass of 1:1 adduct 68,000 Da). The shift in the observed mass between intact WRN and WRN incubated with the compound of Example 1 is equivalent to the theorectical mass of the compound of Example 1 (592.2 Da). […] The mass spectrometry results, combined with the ATPase assay results established that covalently targeting Cys727 is and effective and tractable way to inhibit both the ATPase and helicase activities of WRN.

T2 sequence (Q14191 2-1235 C727A): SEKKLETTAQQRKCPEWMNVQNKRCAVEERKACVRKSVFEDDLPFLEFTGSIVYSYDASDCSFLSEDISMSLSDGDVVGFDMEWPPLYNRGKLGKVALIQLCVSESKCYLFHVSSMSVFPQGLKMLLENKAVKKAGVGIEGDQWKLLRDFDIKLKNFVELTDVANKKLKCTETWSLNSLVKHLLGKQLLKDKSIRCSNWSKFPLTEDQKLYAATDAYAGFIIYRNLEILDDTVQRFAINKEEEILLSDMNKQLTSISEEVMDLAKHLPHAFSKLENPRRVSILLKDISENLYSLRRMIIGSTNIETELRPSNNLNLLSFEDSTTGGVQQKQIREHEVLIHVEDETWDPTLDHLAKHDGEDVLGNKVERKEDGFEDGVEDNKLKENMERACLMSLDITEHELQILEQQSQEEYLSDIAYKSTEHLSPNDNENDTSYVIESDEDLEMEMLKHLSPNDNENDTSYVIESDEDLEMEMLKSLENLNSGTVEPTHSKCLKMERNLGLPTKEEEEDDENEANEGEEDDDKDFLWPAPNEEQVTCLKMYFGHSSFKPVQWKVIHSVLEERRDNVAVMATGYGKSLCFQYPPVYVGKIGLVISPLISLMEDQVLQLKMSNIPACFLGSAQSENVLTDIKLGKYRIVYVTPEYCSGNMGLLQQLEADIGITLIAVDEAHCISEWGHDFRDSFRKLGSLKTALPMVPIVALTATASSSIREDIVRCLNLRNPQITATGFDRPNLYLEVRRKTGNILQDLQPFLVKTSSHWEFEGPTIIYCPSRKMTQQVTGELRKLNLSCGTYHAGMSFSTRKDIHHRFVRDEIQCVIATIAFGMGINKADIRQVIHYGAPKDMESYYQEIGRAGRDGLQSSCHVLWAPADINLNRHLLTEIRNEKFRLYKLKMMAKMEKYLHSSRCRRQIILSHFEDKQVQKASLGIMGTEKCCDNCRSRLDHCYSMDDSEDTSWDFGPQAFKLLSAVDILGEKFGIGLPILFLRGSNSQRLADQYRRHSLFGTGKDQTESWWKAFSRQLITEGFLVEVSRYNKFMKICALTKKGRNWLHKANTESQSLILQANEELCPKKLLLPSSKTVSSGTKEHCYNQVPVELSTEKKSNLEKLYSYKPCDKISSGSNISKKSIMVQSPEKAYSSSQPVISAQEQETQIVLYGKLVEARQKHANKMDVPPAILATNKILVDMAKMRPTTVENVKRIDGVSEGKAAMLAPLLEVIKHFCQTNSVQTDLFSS
T4 sequence (Q14191 2-1235): as the sequence (Q14191 2-1235 C727A) above, with A726C counted along it
T1 sequence (Q14191 2-1235): as the sequence (Q14191 2-1235 C727A) above, with A726C counted along it
T3 sequence (Q14191 2-1235 C727S): as the sequence (Q14191 2-1235 C727A) above, with A726S counted along it

With `C=CC(=O)Nc1ccccc1-c1c(CC)n(CC(=O)Nc2ccc(C(F)(F)F)cc2)c2nc(C3=CCOCC3)nn2c1=O` [Example 1, N-(2-(2-(3,6-Dihydro-2H-pyran-4-yl)-5-ethyl-7-oxo-4-(2-oxo-2-((4-(trifluoromethyl)phenyl)amino)ethyl)-4,7-dihydro-[1,2,4]triazolo[1,5-a]pyrimidin-6-yl)phenyl)acrylamide], the IC50 was less than 100 nM at WRN [1]; 5820 nM at WRN Cys727Ala (Cys727Ala, without preincubation); 38500 nM against WRN Cys727Ser (Cys727Ser); less than 100 nM on WRN [2]; 24 nM at WRN helicase [3] (preincubation 1 hour); 12 nM against WRN helicase [3] (preincubation 2 hrs). Besides, the IC50 at WRN helicase [3] (preincubation 4 hrs) was 8 nM; at WRN helicase [3] (without preincubation), 449 nM. Moreover, the “fold shift relative to WT” value on WRN Cys727Ala (Cys727Ala vs WT, without preincubation) was 13 fold; on WRN Cys727Ser (Cys727Ser vs WT) it was 86 fold. In addition, the “effect of Cys 727 mutation on potency” value at WRN Cys727Ala (FIG. 2, Cys727Ala and Cys727Ser) is “reduces the potency”. In addition, the “time dependence of inhibition” value at WRN helicase [3] (FIG. 1) is reported as “inhibits WRN helicase in a time dependent manner”. In addition, the “adduct formation with WRN helicase” value in the series with WRN helicase [4] (intact mass spectrometry) is given as 1:1 adduct. In addition, the residue modified result with WRN helicase [4] (peptide mapping analysis) was “Cys727 is the only residue to be modified”.

(Values after US20250333419A1, “BICYCLIC COMPOUNDS AS INHIBITORS OF WRN” (Incyte Corporation, priority 2023, published 2025).)
